In the NIST ThermoML archive (doi:10.1016/j.fluid.2014.11.020):
± gives the expanded uncertainty stated by the source.

Experiment: activity coefficient (dimensionless); of the first substance listed, at infinite dilution; xn = mol fraction of the nth substance listed
Settings: Liquid, Chromatography, x1 = 0

Cc1ccccc1C [1,2-dimethylbenzene] + CCCCCCCCn1cc[n+](COCCC)c1C.N#C[N-]C#N
activity coefficient (323.15 K): 1.33 ± 0.09
activity coefficient (333.15 K): 1.33 ± 0.09
activity coefficient (343.15 K): 1.33 ± 0.09

Cc1ccccc1C [1,2-dimethylbenzene] + CCCCCCCCn1cc[n+](COCCC)c1C.O=S(=O)([N-]S(=O)(=O)C(F)(F)F)C(F)(F)F
activity coefficient (323.15 K): 0.94 ± 0.06
activity coefficient (333.15 K): 0.94 ± 0.06
activity coefficient (343.15 K): 0.94 ± 0.06

Cc1ccccc1C [1,2-dimethylbenzene] + CCCCCCCCn1cc[n+](COCCCOC[n+]2ccn(CCCCCCCC)c2C)c1C.N#C[N-]C#N.N#C[N-]C#N
activity coefficient (323.15 K): 1.16 ± 0.07
activity coefficient (333.15 K): 1.18 ± 0.08
activity coefficient (343.15 K): 1.22 ± 0.08

Cc1ccccc1C [1,2-dimethylbenzene] + CCCCCCCCn1cc[n+](COCCCOC[n+]2ccn(CCCCCCCC)c2C)c1C.O=S(=O)([N-]S(=O)(=O)C(F)(F)F)C(F)(F)F.O=S(=O)([N-]S(=O)(=O)C(F)(F)F)C(F)(F)F
activity coefficient (323.15 K): 0.68 ± 0.05
activity coefficient (333.15 K): 0.66 ± 0.05
activity coefficient (343.15 K): 0.66 ± 0.05

Cc1ccccc1C [1,2-dimethylbenzene] + CCCOC[n+]1ccc(N(C)C)cc1.O=S(=O)([N-]S(=O)(=O)C(F)(F)F)C(F)(F)F
activity coefficient (323.15 K): 1.24 ± 0.08
activity coefficient (333.15 K): 1.31 ± 0.09
activity coefficient (343.15 K): 1.33 ± 0.09

Cc1ccccc1C [1,2-dimethylbenzene] + CCCOC[n+]1ccn(C)c1.F[B-](F)(F)F
activity coefficient (323.15 K): 9.13 ± 0.62
activity coefficient (333.15 K): 8.97 ± 0.61
activity coefficient (343.15 K): 8.93 ± 0.61

Cc1ccccc1C [1,2-dimethylbenzene] + CCCOC[n+]1ccn(C)c1.N#C[N-]C#N
activity coefficient (323.15 K): 5.05 ± 0.34
activity coefficient (333.15 K): 5.13 ± 0.35
activity coefficient (343.15 K): 5.22 ± 0.36

Cc1ccccc1C [1,2-dimethylbenzene] + CCCOC[n+]1ccn(C)c1.O=S(=O)([N-]S(=O)(=O)C(F)(F)F)C(F)(F)F
activity coefficient (323.15 K): 2.3 ± 0.16
activity coefficient (333.15 K): 2.28 ± 0.16
activity coefficient (343.15 K): 2.29 ± 0.16

Cc1ccccc1C [1,2-dimethylbenzene] + CCCOC[n+]1ccn(Cc2ccccc2)c1.F[B-](F)(F)F
activity coefficient (323.15 K): 4.3 ± 0.29
activity coefficient (333.15 K): 4.17 ± 0.28
activity coefficient (343.15 K): 4.22 ± 0.29

Cc1ccccc1C [1,2-dimethylbenzene] + CCCOC[n+]1ccn(Cc2ccccc2)c1.N#C[N-]C#N
activity coefficient (323.15 K): 3.05 ± 0.21
activity coefficient (333.15 K): 3.03 ± 0.21
activity coefficient (343.15 K): 3.01 ± 0.2

Cc1ccccc1C [1,2-dimethylbenzene] + CCCOC[n+]1ccn(Cc2ccccc2)c1.O=S(=O)([N-]S(=O)(=O)C(F)(F)F)C(F)(F)F
activity coefficient (323.15 K): 1.58 ± 0.1
activity coefficient (333.15 K): 1.23 ± 0.08
activity coefficient (343.15 K): 1.22 ± 0.08

Cc1ccccc1C [1,2-dimethylbenzene] + CN(C)c1cc[n+](COCCCOC[n+]2ccc(N(C)C)cc2)cc1.O=S(=O)([N-]S(=O)(=O)C(F)(F)F)C(F)(F)F.O=S(=O)([N-]S(=O)(=O)C(F)(F)F)C(F)(F)F
activity coefficient (323.15 K): 1.18 ± 0.08
activity coefficient (333.15 K): 1.2 ± 0.08
activity coefficient (343.15 K): 1.22 ± 0.08

Cc1ccccc1C [1,2-dimethylbenzene] + Cn1cc[n+](COCCCOC[n+]2ccn(C)c2)c1.N#C[N-]C#N.N#C[N-]C#N
activity coefficient (323.15 K): 8.42 ± 0.57
activity coefficient (333.15 K): 8.26 ± 0.56
activity coefficient (343.15 K): 8.25 ± 0.56

Cc1ccccc1C [1,2-dimethylbenzene] + Cn1cc[n+](COCCCOC[n+]2ccn(C)c2)c1.O=S(=O)([N-]S(=O)(=O)C(F)(F)F)C(F)(F)F.O=S(=O)([N-]S(=O)(=O)C(F)(F)F)C(F)(F)F
activity coefficient (323.15 K): 2.08 ± 0.14
activity coefficient (333.15 K): 2.1 ± 0.14
activity coefficient (343.15 K): 2.04 ± 0.14

Cc1ccccc1C [1,2-dimethylbenzene] + N#C[N-]C#N.N#C[N-]C#N.c1ccc(Cn2cc[n+](COCCCOC[n+]3ccn(Cc4ccccc4)c3)c2)cc1
activity coefficient (323.15 K): 7.13 ± 0.49
activity coefficient (333.15 K): 6.87 ± 0.47
activity coefficient (343.15 K): 6.71 ± 0.46

Cc1cccc(C)c1 [1,3-dimethylbenzene] + CCCCCCCCn1cc[n+](COCCC)c1C.N#C[N-]C#N
activity coefficient (323.15 K): 1.54 ± 0.1
activity coefficient (333.15 K): 1.54 ± 0.1
activity coefficient (343.15 K): 1.57 ± 0.1

Cc1cccc(C)c1 [1,3-dimethylbenzene] + CCCCCCCCn1cc[n+](COCCC)c1C.O=S(=O)([N-]S(=O)(=O)C(F)(F)F)C(F)(F)F
activity coefficient (323.15 K): 1.02 ± 0.06
activity coefficient (333.15 K): 1 ± 0.06
activity coefficient (343.15 K): 1.01 ± 0.06

Cc1cccc(C)c1 [1,3-dimethylbenzene] + CCCCCCCCn1cc[n+](COCCCOC[n+]2ccn(CCCCCCCC)c2C)c1C.N#C[N-]C#N.N#C[N-]C#N
activity coefficient (323.15 K): 1.36 ± 0.09
activity coefficient (333.15 K): 1.37 ± 0.09
activity coefficient (343.15 K): 1.39 ± 0.09

Cc1cccc(C)c1 [1,3-dimethylbenzene] + CCCCCCCCn1cc[n+](COCCCOC[n+]2ccn(CCCCCCCC)c2C)c1C.O=S(=O)([N-]S(=O)(=O)C(F)(F)F)C(F)(F)F.O=S(=O)([N-]S(=O)(=O)C(F)(F)F)C(F)(F)F
activity coefficient (323.15 K): 0.75 ± 0.05
activity coefficient (333.15 K): 0.72 ± 0.05
activity coefficient (343.15 K): 0.74 ± 0.05

Cc1cccc(C)c1 [1,3-dimethylbenzene] + CCCOC[n+]1ccc(N(C)C)cc1.O=S(=O)([N-]S(=O)(=O)C(F)(F)F)C(F)(F)F
activity coefficient (323.15 K): 1.4 ± 0.09
activity coefficient (333.15 K): 1.47 ± 0.1
activity coefficient (343.15 K): 1.48 ± 0.1

Cc1cccc(C)c1 [1,3-dimethylbenzene] + CCCOC[n+]1ccn(C)c1.F[B-](F)(F)F
activity coefficient (323.15 K): 11 ± 0.75
activity coefficient (333.15 K): 10.8 ± 0.74
activity coefficient (343.15 K): 10.7 ± 0.73

Cc1cccc(C)c1 [1,3-dimethylbenzene] + CCCOC[n+]1ccn(C)c1.N#C[N-]C#N
activity coefficient (323.15 K): 6.24 ± 0.43
activity coefficient (333.15 K): 6.24 ± 0.43
activity coefficient (343.15 K): 6.41 ± 0.44

Cc1cccc(C)c1 [1,3-dimethylbenzene] + CCCOC[n+]1ccn(C)c1.O=S(=O)([N-]S(=O)(=O)C(F)(F)F)C(F)(F)F
activity coefficient (323.15 K): 2.59 ± 0.18
activity coefficient (333.15 K): 2.54 ± 0.17
activity coefficient (343.15 K): 2.54 ± 0.17

Cc1cccc(C)c1 [1,3-dimethylbenzene] + CCCOC[n+]1ccn(Cc2ccccc2)c1.F[B-](F)(F)F
activity coefficient (323.15 K): 5.41 ± 0.37
activity coefficient (333.15 K): 4.91 ± 0.33
activity coefficient (343.15 K): 4.91 ± 0.33

Cc1cccc(C)c1 [1,3-dimethylbenzene] + CCCOC[n+]1ccn(Cc2ccccc2)c1.N#C[N-]C#N
activity coefficient (323.15 K): 3.62 ± 0.25
activity coefficient (333.15 K): 3.52 ± 0.24
activity coefficient (343.15 K): 3.42 ± 0.23

Cc1cccc(C)c1 [1,3-dimethylbenzene] + CCCOC[n+]1ccn(Cc2ccccc2)c1.O=S(=O)([N-]S(=O)(=O)C(F)(F)F)C(F)(F)F
activity coefficient (323.15 K): 1.55 ± 0.1
activity coefficient (333.15 K): 1.37 ± 0.09
activity coefficient (343.15 K): 1.35 ± 0.09

Cc1cccc(C)c1 [1,3-dimethylbenzene] + CN(C)c1cc[n+](COCCCOC[n+]2ccc(N(C)C)cc2)cc1.O=S(=O)([N-]S(=O)(=O)C(F)(F)F)C(F)(F)F.O=S(=O)([N-]S(=O)(=O)C(F)(F)F)C(F)(F)F
activity coefficient (323.15 K): 1.36 ± 0.09
activity coefficient (333.15 K): 1.38 ± 0.09
activity coefficient (343.15 K): 1.4 ± 0.09

Cc1cccc(C)c1 [1,3-dimethylbenzene] + Cn1cc[n+](COCCCOC[n+]2ccn(C)c2)c1.N#C[N-]C#N.N#C[N-]C#N
activity coefficient (323.15 K): 10.9 ± 0.75
activity coefficient (333.15 K): 10.7 ± 0.73
activity coefficient (343.15 K): 10.5 ± 0.72

Cc1cccc(C)c1 [1,3-dimethylbenzene] + Cn1cc[n+](COCCCOC[n+]2ccn(C)c2)c1.O=S(=O)([N-]S(=O)(=O)C(F)(F)F)C(F)(F)F.O=S(=O)([N-]S(=O)(=O)C(F)(F)F)C(F)(F)F
activity coefficient (323.15 K): 2.39 ± 0.16
activity coefficient (333.15 K): 2.41 ± 0.16
activity coefficient (343.15 K): 2.38 ± 0.16

Cc1cccc(C)c1 [1,3-dimethylbenzene] + N#C[N-]C#N.N#C[N-]C#N.c1ccc(Cn2cc[n+](COCCCOC[n+]3ccn(Cc4ccccc4)c3)c2)cc1
activity coefficient (323.15 K): 8.85 ± 0.6
activity coefficient (333.15 K): 8.51 ± 0.58
activity coefficient (343.15 K): 8.32 ± 0.57

Cc1ccc(C)cc1 [1,4-dimethylbenzene] + CCCCCCCCn1cc[n+](COCCC)c1C.N#C[N-]C#N
activity coefficient (323.15 K): 1.51 ± 0.1
activity coefficient (333.15 K): 1.52 ± 0.1
activity coefficient (343.15 K): 1.56 ± 0.1

Cc1ccc(C)cc1 [1,4-dimethylbenzene] + CCCCCCCCn1cc[n+](COCCC)c1C.O=S(=O)([N-]S(=O)(=O)C(F)(F)F)C(F)(F)F
activity coefficient (323.15 K): 1.02 ± 0.06
activity coefficient (333.15 K): 1.01 ± 0.06
activity coefficient (343.15 K): 1 ± 0.06

Cc1ccc(C)cc1 [1,4-dimethylbenzene] + CCCCCCCCn1cc[n+](COCCCOC[n+]2ccn(CCCCCCCC)c2C)c1C.N#C[N-]C#N.N#C[N-]C#N
activity coefficient (323.15 K): 1.34 ± 0.09
activity coefficient (333.15 K): 1.35 ± 0.09
activity coefficient (343.15 K): 1.36 ± 0.09

Cc1ccc(C)cc1 [1,4-dimethylbenzene] + CCCCCCCCn1cc[n+](COCCCOC[n+]2ccn(CCCCCCCC)c2C)c1C.O=S(=O)([N-]S(=O)(=O)C(F)(F)F)C(F)(F)F.O=S(=O)([N-]S(=O)(=O)C(F)(F)F)C(F)(F)F
activity coefficient (323.15 K): 0.75 ± 0.05
activity coefficient (333.15 K): 0.73 ± 0.05
activity coefficient (343.15 K): 0.73 ± 0.05

Cc1ccc(C)cc1 [1,4-dimethylbenzene] + CCCOC[n+]1ccc(N(C)C)cc1.O=S(=O)([N-]S(=O)(=O)C(F)(F)F)C(F)(F)F
activity coefficient (323.15 K): 1.38 ± 0.09
activity coefficient (333.15 K): 1.45 ± 0.1
activity coefficient (343.15 K): 1.45 ± 0.1

Cc1ccc(C)cc1 [1,4-dimethylbenzene] + CCCOC[n+]1ccn(C)c1.F[B-](F)(F)F
activity coefficient (323.15 K): 10.7 ± 0.73
activity coefficient (333.15 K): 10.3 ± 0.7
activity coefficient (343.15 K): 10.2 ± 0.7

Cc1ccc(C)cc1 [1,4-dimethylbenzene] + CCCOC[n+]1ccn(C)c1.N#C[N-]C#N
activity coefficient (323.15 K): 5.98 ± 0.41
activity coefficient (333.15 K): 6.03 ± 0.41
activity coefficient (343.15 K): 6.05 ± 0.41

Cc1ccc(C)cc1 [1,4-dimethylbenzene] + CCCOC[n+]1ccn(C)c1.O=S(=O)([N-]S(=O)(=O)C(F)(F)F)C(F)(F)F
activity coefficient (323.15 K): 2.58 ± 0.18
activity coefficient (333.15 K): 2.53 ± 0.17
activity coefficient (343.15 K): 2.52 ± 0.17

Cc1ccc(C)cc1 [1,4-dimethylbenzene] + CCCOC[n+]1ccn(Cc2ccccc2)c1.F[B-](F)(F)F
activity coefficient (323.15 K): 5.12 ± 0.35
activity coefficient (333.15 K): 4.85 ± 0.33
activity coefficient (343.15 K): 4.88 ± 0.33

Cc1ccc(C)cc1 [1,4-dimethylbenzene] + CCCOC[n+]1ccn(Cc2ccccc2)c1.N#C[N-]C#N
activity coefficient (323.15 K): 3.66 ± 0.25
activity coefficient (333.15 K): 3.56 ± 0.24
activity coefficient (343.15 K): 3.46 ± 0.24

Cc1ccc(C)cc1 [1,4-dimethylbenzene] + CCCOC[n+]1ccn(Cc2ccccc2)c1.O=S(=O)([N-]S(=O)(=O)C(F)(F)F)C(F)(F)F
activity coefficient (323.15 K): 1.56 ± 0.1
activity coefficient (333.15 K): 1.37 ± 0.09
activity coefficient (343.15 K): 1.34 ± 0.09
